Results reported in PubChem BioAssay AID1918995 (Molecular Pharmacology Branch, DTP, NCI, 2023).
Each block holds one compound with its values, some of them ahead of it.

Tested on: 324938-238-R-J1-PDC complex spheroid growth, % test/control
Assay: Anticancer human tumor 324938-238-R-J1-PDC patient-derived bladder carcinoma cell line growth inhibition [AhR]
Details: for IC50: curve of first compound; for viability, T/C: stronger effect = lower value
How it was run: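 Complex tumor spheroids co-cultured with HUVEC and human MSC stroma; AhR antagonists tested in combination with standard-of-care and investigational agents. Top concentration at or near clinical Cmax (else 10 microM), half-log dilutions; growth expressed as percent test/control.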

[1] = second compound 0.1 µM, first compound 0.0316 µM
[2] = second compound 0.1 µM, first compound 0.1 µM
[3] = second compound 0.1 µM, first compound 0.316 µM
[4] = second compound 0.1 µM, first compound 1 µM
[5] = second compound 0.316 µM, first compound 0.0316 µM
[6] = second compound 0.316 µM, first compound 0.1 µM
[7] = second compound 0.316 µM, first compound 0.316 µM
[8] = second compound 0.316 µM, first compound 1 µM
[9] = second compound 1 µM, first compound 0.0316 µM
[10] = second compound 1 µM, first compound 0.1 µM
[11] = second compound 1 µM, first compound 0.316 µM
[12] = second compound 1 µM, first compound 1 µM
[13] = second compound 3.16 µM, first compound 0.0316 µM
[14] = second compound 3.16 µM, first compound 0.1 µM
[15] = second compound 3.16 µM, first compound 0.316 µM
[16] = second compound 3.16 µM, first compound 1 µM
[17] = second compound 10 µM, first compound 0.0316 µM
[18] = second compound 10 µM, first compound 0.1 µM
[19] = second compound 10 µM, first compound 0.316 µM
[20] = second compound 10 µM, first compound 1 µM
[21] = second compound 0.1 µM, first compound 3.16 µM
[22] = second compound 0.1 µM, first compound 10 µM
[23] = second compound 0.316 µM, first compound 3.16 µM
[24] = second compound 0.316 µM, first compound 10 µM
[25] = second compound 1 µM, first compound 3.16 µM
[26] = second compound 1 µM, first compound 10 µM
[27] = second compound 3.16 µM, first compound 3.16 µM
[28] = second compound 3.16 µM, first compound 10 µM
[29] = second compound 10 µM, first compound 3.16 µM
[30] = second compound 10 µM, first compound 10 µM
[31] = second compound 0.1 µM, first compound 0.00949 µM
[32] = second compound 0.1 µM, first compound 0.03 µM
[33] = second compound 0.1 µM, first compound 0.0949 µM
[34] = second compound 0.1 µM, first compound 0.3 µM
[35] = second compound 0.316 µM, first compound 0.00949 µM
[36] = second compound 0.316 µM, first compound 0.03 µM
[37] = second compound 0.316 µM, first compound 0.0949 µM
[38] = second compound 0.316 µM, first compound 0.3 µM
[39] = second compound 1 µM, first compound 0.00949 µM
[40] = second compound 1 µM, first compound 0.03 µM
[41] = second compound 1 µM, first compound 0.0949 µM
[42] = second compound 1 µM, first compound 0.3 µM
[43] = second compound 3.16 µM, first compound 0.00949 µM
[44] = second compound 3.16 µM, first compound 0.03 µM
[45] = second compound 3.16 µM, first compound 0.0949 µM
[46] = second compound 3.16 µM, first compound 0.3 µM
[47] = second compound 10 µM, first compound 0.00949 µM
[48] = second compound 10 µM, first compound 0.03 µM
[49] = second compound 10 µM, first compound 0.0949 µM
[50] = second compound 10 µM, first compound 0.3 µM
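Further: spheroids exposed to agents for seven days before viability read.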

SMILES: COc1ccc([C@@H](O)c2cc(-c3ncnc4cc(N5CCOCC5)ccc34)c(F)cc2Cl)nn1 + Cc1ccccc1N=Nc1ccc(NC(=O)c2ccnn2C)c(C)c1
IC50 (second compound 0.1 µM): > 10 µM
IC50 (second compound 0.316 µM): > 10 µM
IC50 (second compound 1 µM): > 10 µM
IC50 (second compound 3.16 µM): 9.01 µM
IC50 (second compound 10 µM): 7.49 µM
viability, T/C [1]: 109%
viability, T/C [2]: 110%
viability, T/C [3]: 98.5%
viability, T/C [4]: 96.8%
viability, T/C [21]: 80.7%
viability, T/C [22]: 65.2%
viability, T/C [5]: 94.3%
viability, T/C [6]: 99.9%
viability, T/C [7]: 89.8%
viability, T/C [8]: 83.4%
viability, T/C [23]: 74.9%
viability, T/C [24]: 58.6%
viability, T/C [9]: 100%
viability, T/C [10]: 87.6%
viability, T/C [11]: 93%
viability, T/C [12]: 84.1%
viability, T/C [25]: 72.2%
viability, T/C [26]: 55.4%
viability, T/C [13]: 83.5%
viability, T/C [14]: 83.5%
viability, T/C [15]: 75.7%
viability, T/C [16]: 65.1%
viability, T/C [27]: 57.4%
viability, T/C [28]: 48.8%
viability, T/C [17]: 72.7%
viability, T/C [18]: 81.1%
viability, T/C [19]: 72.7%
viability, T/C [20]: 66.6%
viability, T/C [29]: 59.2%
viability, T/C [30]: 47%

SMILES: Nc1ncn(C2CC(O)C(CO)S2)c(=O)n1 (stereo not given) + Cc1ccccc1N=Nc1ccc(NC(=O)c2ccnn2C)c(C)c1
IC50 (second compound 0.1 µM): > 0.3 µM
IC50 (second compound 0.316 µM): > 0.3 µM
IC50 (second compound 1 µM): > 0.3 µM
IC50 (second compound 3.16 µM): 0.29 µM
IC50 (second compound 10 µM): 0.296 µM
viability, T/C (second compound 0.1 µM, first compound 0.000949 µM): 83.2%
viability, T/C (second compound 0.1 µM, first compound 0.003 µM): 95.4%
viability, T/C [31]: 91.7%
viability, T/C [32]: 78.5%
viability, T/C [33]: 72.6%
viability, T/C [34]: 53.4%
viability, T/C (second compound 0.316 µM, first compound 0.000949 µM): 81.7%
viability, T/C (second compound 0.316 µM, first compound 0.003 µM): 90.2%
viability, T/C [35]: 98.3%
viability, T/C [36]: 82.6%
viability, T/C [37]: 71.8%
viability, T/C [38]: 54.3%
viability, T/C (second compound 1 µM, first compound 0.000949 µM): 97.1%
viability, T/C (second compound 1 µM, first compound 0.003 µM): 87.4%
viability, T/C [39]: 78.7%
viability, T/C [40]: 78.7%
viability, T/C [41]: 65%
viability, T/C [42]: 55.4%
viability, T/C (second compound 3.16 µM, first compound 0.000949 µM): 83.7%
viability, T/C (second compound 3.16 µM, first compound 0.003 µM): 85.4%
viability, T/C [43]: 66%
viability, T/C [44]: 70.4%
viability, T/C [45]: 60.9%
viability, T/C [46]: 48.5%
viability, T/C (second compound 10 µM, first compound 0.000949 µM): 81.6%
viability, T/C (second compound 10 µM, first compound 0.003 µM): 71.4%
viability, T/C [47]: 70.5%
viability, T/C [48]: 68.8%
viability, T/C [49]: 65.8%
viability, T/C [50]: 48.7%

SMILES: O=C(C=Cn1cnc(-c2cc(C(F)(F)F)cc(C(F)(F)F)c2)n1)NNc1cnccn1 + Cc1ccccc1N=Nc1ccc(NC(=O)c2ccnn2C)c(C)c1
IC50 (second compound 0.1 µM): 0.173 µM
IC50 (second compound 0.316 µM): 0.171 µM
IC50 (second compound 1 µM): 0.178 µM
IC50 (second compound 3.16 µM): 0.144 µM
IC50 (second compound 10 µM): 0.172 µM
viability, T/C [31]: 91.4%
viability, T/C [32]: 95.5%
viability, T/C [33]: 62.7%
viability, T/C [34]: 35.8%
viability, T/C (second compound 0.1 µM, first compound 0.949 µM): 19.1%
viability, T/C (second compound 0.1 µM, first compound 3 µM): 8.4%
viability, T/C [35]: 90.4%
viability, T/C [36]: 90.6%
viability, T/C [37]: 67.8%
viability, T/C [38]: 32.1%
viability, T/C (second compound 0.316 µM, first compound 0.949 µM): 19.9%
viability, T/C (second compound 0.316 µM, first compound 3 µM): 11.9%
viability, T/C [39]: 86.4%
viability, T/C [40]: 79.8%
viability, T/C [41]: 65.6%
viability, T/C [42]: 37.1%
viability, T/C (second compound 1 µM, first compound 0.949 µM): 18.6%
viability, T/C (second compound 1 µM, first compound 3 µM): 10.7%
viability, T/C [43]: 84.7%
viability, T/C [44]: 72%
viability, T/C [45]: 58.2%
viability, T/C [46]: 37.5%
viability, T/C (second compound 3.16 µM, first compound 0.949 µM): 23.4%
viability, T/C (second compound 3.16 µM, first compound 3 µM): 16.3%
viability, T/C [47]: 78.4%
viability, T/C [48]: 78.7%
viability, T/C [49]: 62.5%
viability, T/C [50]: 37.2%
viability, T/C (second compound 10 µM, first compound 0.949 µM): 26.7%
viability, T/C (second compound 10 µM, first compound 3 µM): 18.6%

The next lines start with results.

IC50 (second compound 0.1 µM): 0.277 µM
IC50 (second compound 0.316 µM): 0.379 µM
IC50 (second compound 1 µM): 0.245 µM
IC50 (second compound 3.16 µM): 0.309 µM
IC50 (second compound 10 µM): 0.324 µM
SMILES: CC1COCCN1c1cc(-c2ccnn2C)c2ccnc(-c3ccn[nH]3)c2n1 (stereo not given) + Cc1ccccc1N=Nc1ccc(NC(=O)c2ccnn2C)c(C)c1
viability, T/C (second compound 0.1 µM, first compound 0.00316 µM): 102%
viability, T/C (second compound 0.1 µM, first compound 0.01 µM): 104%
viability, T/C [1]: 102%
viability, T/C [2]: 74.7%
viability, T/C [3]: 48.8%
viability, T/C [4]: 32.7%
viability, T/C (second compound 0.316 µM, first compound 0.00316 µM): 104%
viability, T/C (second compound 0.316 µM, first compound 0.01 µM): 90.8%
viability, T/C [5]: 88.8%
viability, T/C [6]: 71.5%
viability, T/C [7]: 53.6%
viability, T/C [8]: 30.4%
viability, T/C (second compound 1 µM, first compound 0.00316 µM): 95%
viability, T/C (second compound 1 µM, first compound 0.01 µM): 95.4%
viability, T/C [9]: 87.6%
viability, T/C [10]: 65.8%
viability, T/C [11]: 46.6%
viability, T/C [12]: 31.5%
viability, T/C (second compound 3.16 µM, first compound 0.00316 µM): 78.8%
viability, T/C (second compound 3.16 µM, first compound 0.01 µM): 88.3%
viability, T/C [13]: 73.8%
viability, T/C [14]: 67.5%
viability, T/C [15]: 49.8%
viability, T/C [16]: 31.6%
viability, T/C (second compound 10 µM, first compound 0.00316 µM): 74.3%
viability, T/C (second compound 10 µM, first compound 0.01 µM): 81.2%
viability, T/C [17]: 71%
viability, T/C [18]: 64.4%
viability, T/C [19]: 50.8%
viability, T/C [20]: 35%

IC50 (second compound 0.1 µM): 5.95 µM
IC50 (second compound 0.316 µM): 4.66 µM
IC50 (second compound 1 µM): 3.88 µM
IC50 (second compound 3.16 µM): 4.6 µM
IC50 (second compound 10 µM): 5.12 µM
SMILES: CC1COCCN1c1cc(C2(S(C)(=N)=O)CC2)nc(-c2ccnc3[nH]ccc23)n1 (stereo not given) + Cc1ccccc1N=Nc1ccc(NC(=O)c2ccnn2C)c(C)c1
viability, T/C [1]: 97.8%
viability, T/C [2]: 96.8%
viability, T/C [3]: 98.3%
viability, T/C [4]: 90.4%
viability, T/C [21]: 68.5%
viability, T/C [22]: 34.9%
viability, T/C [5]: 84.1%
viability, T/C [6]: 89.5%
viability, T/C [7]: 90.3%
viability, T/C [8]: 80.2%
viability, T/C [23]: 59%
viability, T/C [24]: 32.8%
viability, T/C [9]: 91.3%
viability, T/C [10]: 83.5%
viability, T/C [11]: 95%
viability, T/C [12]: 84.6%
viability, T/C [25]: 53.4%
viability, T/C [26]: 34.8%
viability, T/C [13]: 72.7%
viability, T/C [14]: 78.2%
viability, T/C [15]: 76.5%
viability, T/C [16]: 68.6%
viability, T/C [27]: 57.3%
viability, T/C [28]: 33.2%
viability, T/C [17]: 73.8%
viability, T/C [18]: 69.3%
viability, T/C [19]: 68.7%
viability, T/C [20]: 66%
viability, T/C [29]: 56.5%
viability, T/C [30]: 40.8%
